A word on the solubility: it is the concentration that dissolves in the medium under given conditions. Low values mean a poorly soluble substance, high ones a readily soluble substance.

This passage reports solubility and solubility in water results from US11291750B2, “Hydrogel condom” (THE TEXAS A & M UNIVERSITY SYSTEM, priority 2016, dated 2022).

SMILES strings stand for the structures. In brackets after ≈: the same amount, converted by molar mass.

A short description of data set [1]: Aqueous solubility of quercetin without and with sulfated beta-cyclodextrin (UV absorbance at 375 nm). Conditions: aqueous sulfated beta-cyclodextrin solution, aqueous with cosolvent or surfactant or cyclodextrin. The data set is classed as physicochemical. The source says:
FIG. 8 depicts a graph of sulfated beta-cyclodextrin formed 1:1 complex with antioxidant quercetin, showing quercetin can be encapsulated in the gel. […] In the presence of sulfated beta-cyclodextrin, the absorbance increased. The sulfated beta-cyclodextrin can form 1:1 complex with quercetin through host-guest chemistry. […] Embedment of quercetin in hydrogel and its release: The sulfated beta-cyclodextrin in the crosslinked polymer hydrogel allows drug molecules, even hydrophobic compounds, to incorporate into it through host-guest interaction. An encapsulated-quercetin hydrogel film was prepared (FIG. 8). […] The high equilibrium binding constant of the sulfated β-cyclodextrin/quercetin complex (Kf=2.53×10^4 M^−1 at 25° C.) permits encapsulation of high concentration of quercetin in gel. The fabrication of the quercetin hydrogel is similar to that mentioned above, except for alternative sulfated beta-cyclodextrin with 1:1 sulfated beta-cyclodextrin/quercetin complex. The resultant hydrogel attained similar high fracture toughness and stretching ability in the presence of quercetin (FIG. 9).

The conditions of data set [2]: 'as known'; cited from earlier work.

On to `O=c1c(O)c(-c2ccc(O)c(O)c2)oc2cc(O)cc(O)c12` [quercetin], for which the solubility came out at 42 µM (≈ 12.7 µg/mL) in data set [1] (in 1 mM sulfated beta-cyclodextrin) and 73 µM (≈ 22.1 µg/mL) in data set [1] (in 2 mM sulfated beta-cyclodextrin). Besides, in data set [2], the solubility in water was roughly 1.3 µM (≈ 0.393 µg/mL).
